# Source: paper PMC7594840, “Identification of histone deacetylase inhibitors with (arylidene)aminoxy scaffold active in uveal melanoma cell lines” (Journal of Enzyme Inhibition and Medicinal Chemistry, 2020)
# Biological target: T1, HDAC8 (Homo sapiens, UniProt Q9BY41)
# T1 construct: purchased BPS Bioscience
# T1 sequence (Q9BY41 1-377): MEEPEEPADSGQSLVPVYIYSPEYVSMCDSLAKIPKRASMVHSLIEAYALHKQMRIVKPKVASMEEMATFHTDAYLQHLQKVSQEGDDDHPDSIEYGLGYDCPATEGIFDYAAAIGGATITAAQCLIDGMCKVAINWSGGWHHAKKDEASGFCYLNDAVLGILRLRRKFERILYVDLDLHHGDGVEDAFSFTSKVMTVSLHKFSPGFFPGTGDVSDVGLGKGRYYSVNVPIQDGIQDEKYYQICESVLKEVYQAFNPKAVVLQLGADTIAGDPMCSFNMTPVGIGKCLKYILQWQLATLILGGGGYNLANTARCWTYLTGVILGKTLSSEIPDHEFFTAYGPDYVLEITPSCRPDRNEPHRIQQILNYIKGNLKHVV
# Assay: Microfluidic chip-based HDAC inhibition assay (Calliper off-chip mobility shift), HDAC8
# Type: biochemical
# Conditions: duplicate, 10-point dose curve, 3-fold serial dilution from 30 μM
# Description: (§8) Test compounds were screened against human histone deacetylases (HDACs) 1, 3, 6, and 8 using the Calliper off-chip mobility shift assay technology. All HDACs were purchased from BPS Bioscience and four selective substrates were used according to the targeted isozyme. […] Buffers components, except for CR-3 (LabChip Coating Reagent 3, purchased from PerkinElmer, Product Number 760050) and Panobinostat (LBH589, purchased from ApexBio Technology)[35]^,[36] were purchased from Sigma Aldrich. […] (all purchased from Selleck Chemicals).
row,IC50 [µM],Compound
1,8.21,"O=C(CCCCO/N=C/c1ccc(-c2ccccc2)cc1)NO [Compound 2b, (E)-5-((([1,1′-biphenyl]-4-ylmethylene)amino)oxy)-N-hydroxypentanamide]"
2,> 30,"O=C(CCCCO/N=C/c1ccc2ccccc2c1)NO [Compound 2c, (E)-N-hydroxy-5-(((naphthalen-2-ylmethylene)amino)oxy)pentanamide]"
3,13.7,"C/C(=N\OCCCCC(=O)NO)c1ccc(-c2ccccc2)cc1 [Compound 2e, (E)-5-(((1-([1,1′-biphenyl]-4-yl)ethylidene)amino)oxy)-N-hydroxypentanamide]"

# System: 92.1 cells
# Assay: Cell cycle distribution by flow cytometry (PI), 92.1 cells
# Type: cell-based, human
# Conditions: 10 µM compound, 48 h
# Procedure: (§1) We then investigated whether this anti-proliferative effect was due to the blockade in the G0/G1 phase of the cell cycle, as expected for SAHA[31].
# (§2) Figure 8. Influence of the different compounds and DMSO solvent control on cell cycle distribution in UM 92.1 and Mel270 cells. The cells were treated with 10 µM compound for 48 h and cell cycle distribution was analysed by flow cytometry after fixation and staining with PI. The percentage of cells in each category is indicated. One representative experiment is shown.
# (§3) Treatments with the compounds were performed with slight differences, according to the final use of the samples. For the cell viability assay with MTT, cells were seeded in 96-well flat-bottom plates in culture medium at 5 × 10^3 cells/well, whereas for cell cycle analysis and QRT-PCR cells were seeded in 24-well plates at 5 × 10^4 cells/well. The day after, a culture medium containing the appropriate amount of compounds or their solvent control DMSO was added, and treatments were carried out for the indicated time.
# (§4) To assess the cell cycle status of treated samples, after 48 h of incubation the cells were harvested, washed twice with cold PBS, and fixed in 70% ethyl alcohol at −20 °C overnight. The day after, the samples were washed with cold PBS and incubated for 20 min with propidium iodide (PI) staining solution (50 μg/ml PI, 0.05% Triton X-100, 0.2 mg/ml RNase A in PBS) at room temperature. Flow cytometric analysis of DNA content was performed using a FACScan flow cytometer with the CellQuest software (BD Biosciences). Gating on viable cells was performed using physical parameters and 10^4 gated events were acquired. Cell cycle analysis on the gated PI distribution was performed using Modfit software.
row,Compound,effect on cell cycle distribution
1,"O=C(CCCCO/N=C/c1ccc(-c2ccccc2)cc1)NO [Compound 2b, (E)-5-((([1,1′-biphenyl]-4-ylmethylene)amino)oxy)-N-hydroxypentanamide]",efficiently block the cell cycle at the G0/G1 phase
2,"O=C(CCCCO/N=C/c1ccc2ccccc2c1)NO [Compound 2c, (E)-N-hydroxy-5-(((naphthalen-2-ylmethylene)amino)oxy)pentanamide]",behaved like the control DMSO
3,"C/C(=N\OCCCCC(=O)NO)c1ccc(-c2ccccc2)cc1 [Compound 2e, (E)-5-(((1-([1,1′-biphenyl]-4-yl)ethylidene)amino)oxy)-N-hydroxypentanamide]",efficiently block the cell cycle at the G0/G1 phase
4,"O=C(CCCCCCC(=O)Nc1ccccc1)NO [SAHA, Vorinostat, reference compound]",efficiently block the cell cycle at the G0/G1 phase

# System: 92.1 cells
# Assay: MTT cell viability assay, UM cell line 92.1
# Type: cell-based, human
# Conditions: 72 h treatment, compared with SAHA and LD10
# Procedure: (§5) The anti-proliferative effects of the most promising HDAC inhibitors, VS16, VS13, SN2, and LD10 were evaluated on human UM cell lines (92.1 and Mel270) and SAHA was used as a positive control. First, we assessed by MTT assay the cell viability after a 72 h treatment at different concentrations. […] Similar results were found for ovarian carcinoma cell line A2780 and to a lesser extent for SKOV3 (Supplementary Figure S2).
# (§6) Figure 7. MTT. In vitro cytotoxicity at the 72 h time point of the different compounds in human UM cell lines 92.1 and Mel270, as assessed by the MTT cell viability assay. Data are expressed as percent of control with the DMSO solvent, which was used at the same amount present in the highest compound concentration. Error bars represent SD of quadruplicates. One representative experiment is shown.
# as §3
# (§7) Cell viability after treatment was evaluated by a microculture tetrazolium reduction assay using MTT [3–(4,5-dimethyltiazol-2-yl) 2,5-diphenyltetrazolium bromide; Sigma]. At 72 h of treatment, 20 μl of MTT stock solution (2 mg/ml in PBS) were added to 200 μl cell cultures for an additional 4 h of incubation. MTT-containing culture medium was then removed and precipitated formazan was dissolved in 100 μl of DMSO. Results were read within 15 min in a microplate reader spectrometer at 540 nm (MEDGENIX 400 ATC, Medgenix Diagnostics), and the means of quadruplicates were calculated. Cell survival was expressed as a percentage of control samples.
row,Compound,effect on cell viability (MTT)
1,"O=C(CCCCO/N=C/c1ccc(-c2ccccc2)cc1)NO [Compound 2b, (E)-5-((([1,1′-biphenyl]-4-ylmethylene)amino)oxy)-N-hydroxypentanamide]",stronger effect
2,"C/C(=N\OCCCCC(=O)NO)c1ccc(-c2ccccc2)cc1 [Compound 2e, (E)-5-(((1-([1,1′-biphenyl]-4-yl)ethylidene)amino)oxy)-N-hydroxypentanamide]",stronger effect

# Biological target: T2, HDAC1 (Homo sapiens, UniProt Q13547)
# T2 construct: purchased BPS Bioscience
# T2 sequence (Q13547 whole entry): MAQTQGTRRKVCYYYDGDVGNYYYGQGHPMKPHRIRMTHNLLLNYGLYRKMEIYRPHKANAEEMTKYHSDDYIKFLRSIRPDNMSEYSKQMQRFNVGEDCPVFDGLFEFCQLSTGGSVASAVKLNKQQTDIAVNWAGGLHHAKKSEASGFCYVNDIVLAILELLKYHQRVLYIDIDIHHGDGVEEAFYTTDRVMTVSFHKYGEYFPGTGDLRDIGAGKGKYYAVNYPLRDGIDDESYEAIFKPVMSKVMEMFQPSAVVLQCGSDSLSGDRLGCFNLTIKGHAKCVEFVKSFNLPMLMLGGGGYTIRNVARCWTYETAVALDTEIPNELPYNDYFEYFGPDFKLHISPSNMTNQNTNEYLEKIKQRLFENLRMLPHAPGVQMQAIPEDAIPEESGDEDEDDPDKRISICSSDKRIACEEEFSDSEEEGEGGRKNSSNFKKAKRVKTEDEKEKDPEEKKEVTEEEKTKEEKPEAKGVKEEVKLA
# Assay: Microfluidic chip-based HDAC inhibition assay (Calliper off-chip mobility shift), HDAC1
# Type: biochemical
# Conditions: duplicate, 10-point dose curve, 3-fold serial dilution from 30 μM
# Description: as §8
row,IC50 [nM],Compound
1,698,"O=C(CCCCO/N=C/c1ccc(-c2ccccc2)cc1)NO [Compound 2b, (E)-5-((([1,1′-biphenyl]-4-ylmethylene)amino)oxy)-N-hydroxypentanamide]"
2,6040,"O=C(CCCCO/N=C/c1ccc2ccccc2c1)NO [Compound 2c, (E)-N-hydroxy-5-(((naphthalen-2-ylmethylene)amino)oxy)pentanamide]"
3,593,"C/C(=N\OCCCCC(=O)NO)c1ccc(-c2ccccc2)cc1 [Compound 2e, (E)-5-(((1-([1,1′-biphenyl]-4-yl)ethylidene)amino)oxy)-N-hydroxypentanamide]"

# Biological target: T3, HDAC3 (Homo sapiens, UniProt O15379)
# T3 construct: purchased BPS Bioscience
# T3 sequence (O15379 whole entry): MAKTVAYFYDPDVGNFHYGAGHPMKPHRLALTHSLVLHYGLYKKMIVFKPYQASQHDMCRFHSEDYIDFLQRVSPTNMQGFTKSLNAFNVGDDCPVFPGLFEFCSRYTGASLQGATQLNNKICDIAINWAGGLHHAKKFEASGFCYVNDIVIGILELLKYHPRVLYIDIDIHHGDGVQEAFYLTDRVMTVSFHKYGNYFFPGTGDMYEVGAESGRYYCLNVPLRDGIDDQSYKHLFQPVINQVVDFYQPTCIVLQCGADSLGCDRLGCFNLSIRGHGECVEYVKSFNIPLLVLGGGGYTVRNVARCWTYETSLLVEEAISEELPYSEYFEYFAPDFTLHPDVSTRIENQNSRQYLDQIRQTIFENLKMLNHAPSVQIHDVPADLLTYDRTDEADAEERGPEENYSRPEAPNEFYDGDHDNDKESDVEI
# T3 sequence (Q9Y618 395-489 partner limits assumed): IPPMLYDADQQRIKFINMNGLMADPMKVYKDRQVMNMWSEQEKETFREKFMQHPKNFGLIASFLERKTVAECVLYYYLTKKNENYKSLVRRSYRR
# Assay: Microfluidic chip-based HDAC inhibition assay (Calliper off-chip mobility shift), HDAC3
# Type: biochemical
# Conditions: duplicate, 10-point dose curve, 3-fold serial dilution from 30 μM; SAHA 15-point dose curve
# Description: as §8
row,IC50 [nM],Compound
1,58,"O=C(CCCCO/N=C/c1ccc(-c2ccccc2)cc1)NO [Compound 2b, (E)-5-((([1,1′-biphenyl]-4-ylmethylene)amino)oxy)-N-hydroxypentanamide]"
2,594,"O=C(CCCCO/N=C/c1ccc2ccccc2c1)NO [Compound 2c, (E)-N-hydroxy-5-(((naphthalen-2-ylmethylene)amino)oxy)pentanamide]"
3,43,"C/C(=N\OCCCCC(=O)NO)c1ccc(-c2ccccc2)cc1 [Compound 2e, (E)-5-(((1-([1,1′-biphenyl]-4-yl)ethylidene)amino)oxy)-N-hydroxypentanamide]"

# System: Mel270 cells
# Assay: MTT cell viability assay, UM cell line Mel270
# Type: cell-based, human
# Conditions: 72 h treatment, compared with SAHA and LD10
# Procedure: as §5, §6, §3, §7
row,Compound,effect on cell viability (MTT)
1,"O=C(CCCCO/N=C/c1ccc(-c2ccccc2)cc1)NO [Compound 2b, (E)-5-((([1,1′-biphenyl]-4-ylmethylene)amino)oxy)-N-hydroxypentanamide]",stronger effect
2,"C/C(=N\OCCCCC(=O)NO)c1ccc(-c2ccccc2)cc1 [Compound 2e, (E)-5-(((1-([1,1′-biphenyl]-4-yl)ethylidene)amino)oxy)-N-hydroxypentanamide]",stronger effect

# Biological target: T4, HDAC6 (Homo sapiens, UniProt Q9UBN7)
# T4 construct: purchased BPS Bioscience
# T4 sequence (Q9UBN7 1-1215): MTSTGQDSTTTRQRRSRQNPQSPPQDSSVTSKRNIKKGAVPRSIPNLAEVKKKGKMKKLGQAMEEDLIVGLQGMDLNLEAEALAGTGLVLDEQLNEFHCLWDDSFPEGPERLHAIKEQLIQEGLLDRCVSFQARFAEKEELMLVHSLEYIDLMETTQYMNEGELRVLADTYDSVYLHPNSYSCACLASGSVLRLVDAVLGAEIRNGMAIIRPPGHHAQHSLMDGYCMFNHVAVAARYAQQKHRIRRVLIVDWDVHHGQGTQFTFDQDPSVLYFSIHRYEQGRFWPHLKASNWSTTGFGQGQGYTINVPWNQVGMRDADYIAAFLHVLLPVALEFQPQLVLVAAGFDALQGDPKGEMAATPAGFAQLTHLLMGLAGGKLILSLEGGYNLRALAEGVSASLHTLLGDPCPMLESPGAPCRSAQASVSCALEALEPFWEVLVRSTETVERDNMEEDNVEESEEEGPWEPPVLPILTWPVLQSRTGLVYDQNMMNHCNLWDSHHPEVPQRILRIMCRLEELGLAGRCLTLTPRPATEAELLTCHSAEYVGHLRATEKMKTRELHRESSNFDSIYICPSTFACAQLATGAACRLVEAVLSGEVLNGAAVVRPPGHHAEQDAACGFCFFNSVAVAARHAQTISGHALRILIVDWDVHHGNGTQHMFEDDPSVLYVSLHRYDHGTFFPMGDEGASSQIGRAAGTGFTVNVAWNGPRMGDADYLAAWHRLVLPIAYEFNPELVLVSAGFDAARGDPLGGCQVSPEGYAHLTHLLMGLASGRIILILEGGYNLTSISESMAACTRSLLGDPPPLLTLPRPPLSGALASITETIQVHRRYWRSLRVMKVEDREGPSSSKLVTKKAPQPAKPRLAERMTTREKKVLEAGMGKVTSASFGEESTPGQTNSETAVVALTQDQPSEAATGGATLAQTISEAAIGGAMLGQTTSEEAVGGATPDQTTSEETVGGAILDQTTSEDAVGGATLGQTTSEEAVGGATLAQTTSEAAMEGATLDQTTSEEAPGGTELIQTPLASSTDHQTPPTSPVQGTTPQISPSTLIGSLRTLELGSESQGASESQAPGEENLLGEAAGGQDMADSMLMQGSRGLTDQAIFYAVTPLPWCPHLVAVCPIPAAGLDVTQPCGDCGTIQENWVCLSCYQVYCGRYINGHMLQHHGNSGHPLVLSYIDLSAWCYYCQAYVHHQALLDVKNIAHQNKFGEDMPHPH
# Assay: Microfluidic chip-based HDAC inhibition assay (Calliper off-chip mobility shift), HDAC6
# Type: biochemical
# Conditions: duplicate, 10-point dose curve, 3-fold serial dilution from 30 μM; SAHA 15-point dose curve; read-out: IC50 HDAC6
# Description: as §8
row,IC50 [nM],Compound
1,316,"O=C(CCCCO/N=C/c1ccc(-c2ccccc2)cc1)NO [Compound 2b, (E)-5-((([1,1′-biphenyl]-4-ylmethylene)amino)oxy)-N-hydroxypentanamide]"
2,836,"O=C(CCCCO/N=C/c1ccc2ccccc2c1)NO [Compound 2c, (E)-N-hydroxy-5-(((naphthalen-2-ylmethylene)amino)oxy)pentanamide]"
3,406,"C/C(=N\OCCCCC(=O)NO)c1ccc(-c2ccccc2)cc1 [Compound 2e, (E)-5-(((1-([1,1′-biphenyl]-4-yl)ethylidene)amino)oxy)-N-hydroxypentanamide]"

# System: Mel270 cells
# Assay: Cell cycle distribution by flow cytometry (PI), Mel270 cells
# Type: cell-based, human
# Conditions: 10 µM compound, 48 h
# Procedure: as §1, §2, §3, §4
row,Compound,effect on cell cycle distribution
1,"O=C(CCCCO/N=C/c1ccc(-c2ccccc2)cc1)NO [Compound 2b, (E)-5-((([1,1′-biphenyl]-4-ylmethylene)amino)oxy)-N-hydroxypentanamide]",efficiently block the cell cycle at the G0/G1 phase
2,"O=C(CCCCO/N=C/c1ccc2ccccc2c1)NO [Compound 2c, (E)-N-hydroxy-5-(((naphthalen-2-ylmethylene)amino)oxy)pentanamide]",behaved like the control DMSO
3,"C/C(=N\OCCCCC(=O)NO)c1ccc(-c2ccccc2)cc1 [Compound 2e, (E)-5-(((1-([1,1′-biphenyl]-4-yl)ethylidene)amino)oxy)-N-hydroxypentanamide]",efficiently block the cell cycle at the G0/G1 phase
4,"O=C(CCCCCCC(=O)Nc1ccccc1)NO [SAHA, Vorinostat, reference compound]",efficiently block the cell cycle at the G0/G1 phase

# System: HeLa nuclear extract containing a mixture of HDACs
# Assay: HDAC Fluorimetric Assay/Drug Discovery Kit (BIOMOL) on HeLa nuclear extract
# Type: biochemical
# Conditions: HeLa extract IC50 compared with SAHA
row,Compound,folds more potent than SAHA
1,"O=C(CCCCO/N=C/c1ccc(-c2ccccc2)cc1)NO [Compound 2b, (E)-5-((([1,1′-biphenyl]-4-ylmethylene)amino)oxy)-N-hydroxypentanamide]",3- to 5 fold
2,"O=C(CCCCO/N=C/c1ccc2ccccc2c1)NO [Compound 2c, (E)-N-hydroxy-5-(((naphthalen-2-ylmethylene)amino)oxy)pentanamide]",3- to 5 fold
3,"C/C(=N\OCCCCC(=O)NO)c1ccc(-c2ccccc2)cc1 [Compound 2e, (E)-5-(((1-([1,1′-biphenyl]-4-yl)ethylidene)amino)oxy)-N-hydroxypentanamide]",3- to 5 fold

# Same assay, conditions: means of at least three experiments, SD <20% of the mean
row,IC50 [nM],Compound
1,56,"O=C(CCCCO/N=C/c1ccc(-c2ccccc2)cc1)NO [Compound 2b, (E)-5-((([1,1′-biphenyl]-4-ylmethylene)amino)oxy)-N-hydroxypentanamide]"
2,96,"O=C(CCCCO/N=C/c1ccc2ccccc2c1)NO [Compound 2c, (E)-N-hydroxy-5-(((naphthalen-2-ylmethylene)amino)oxy)pentanamide]"
3,53,"C/C(=N\OCCCCC(=O)NO)c1ccc(-c2ccccc2)cc1 [Compound 2e, (E)-5-(((1-([1,1′-biphenyl]-4-yl)ethylidene)amino)oxy)-N-hydroxypentanamide]"
